Experimental data published in paper PMC11274128, “Modification and Synergistic Studies of a Novel Frog Antimicrobial Peptide against Pseudomonas aeruginosa Biofilms” (Antibiotics, 2024).
Converted amounts (≈) assume the structure as drawn. Like-named read-outs stand apart in the source and are kept apart here. Bridge positions count the residues as written; N and C are the ends. Peptide text beside a SMILES is read from it.

How the values were obtained:
[1] = system: A. baumannii BAA 747 biofilm; settings: checkerboard MBIC, 24 h, crystal violet, 595 nm
Protocol: (§1) Parameter fractional inhibitory concentration indices (FICIs) were used to evaluate the synergistic effect, and the value of that was calculated as follows:FICI = FICa + FICb FICa = MIC combination peptide/MIC single peptide FICb = MIC combination antibiotic/MIC single antibiotic
(§2) The FICI value was interpreted as “synergy” (FICI ≤ 0.5), “no interaction” (0.5 < FICI ≤ 4), or “antagonism” (FICI > 4).
The bacteria were also cultured, subcultured, diluted, and incubated as the methods of the MBIC assay. All experimental groups were included in a peptide and antibiotic co-administration of MIC assay. To ensure that the mixture was evenly dispersed, the plate was placed in a shaker and incubated for 24 h at 37 and 220× g. The plate was twice rinsed with 200 µL of PBS solution following a 24 h incubation period with peptides and diluted bacterial cultures. Each well received a separate addition of 100 μL of methanol and 0.1% crystal violet solution (Sigma-Aldrich, London, UK), which was left there for 20 min. The plate was then carefully cleaned under running water. Following the drying process, each well received 160 µL of acetic acid (33% in dd water, Sigma-Aldrich, UK). Additionally, the absorbance was measured at λ = 595 nm using the Synergy HT plate reader. FICI values were calculated and identified for our peptide and antibiotic co-administration of MIC assay.

[2] = system: horse red blood cells; settings: horse red blood cells in PBS, 37 °C, 2 h, absorbance 570 nm; positive control 0.1% Triton
Protocol: The pure peptide was dissolved in PBS and then two-fold diluted to obtain a series of concentrations: 512, 256, 128, 64, 32, 16, 8, 4, and 2 μM. A positive control (0.1% Triton) and blank control (PBS) were used. Two millilitres of fresh horse red blood cells were washed in PBS until the supernatant became colourless and clear, and the mixture was then thoroughly mixed. Each mixture contained 100 μL of peptide solution or controls and 100 μL of horse red blood cells, which were then incubated at 37 °C for 2 h and centrifuged at 930× g for 10 min. Subsequently, 100 μL of supernatant from each tube was transferred into a 96-well plate, and the plate reader measured the absorbance at a wavelength of 570 nm. The haemolysis rate was calculated using the following formula:Percentage Haemolysis= (ASample − ABlank)/(APositive − ABlank) × 100%

[3] = system: A. baumannii (BAA 747); assay: microbe, parasite or virus in culture; type: cell-based, Acinetobacter baumannii; settings: planktonic A. baumannii BAA 747
From the text: (§3) The minimum inhibitory concentration (MIC) is the minimum concentration of an antimicrobial agent that prevents the visible growth of a bacterium or bacteria. The MIC is an important piece of data for research on new antimicrobial agents and helps in the effective selection of antibiotics to improve the success of treatment. The minimum bactericidal concentration (MBC) is defined as the lowest antibiotic concentration that kills 99.9% of the inoculum. This study mainly contained eight different microorganisms, which were Staphylococcus aureus (ATCC 6538), methicillin-resistant Staphylococcus aureus (NCTC 12493), Enterococcus faecalis (NCTC 12697), Escherichia coli (ATCC 8739), Klebsiella pneumoniae (ATCC 43816), Pseudomonas aeruginosa (ATCC CRM 9027), Acinetobacter baumannii (BAA 747), and Candida albicans (ATCC 10231). The bacteria were incubated in the compatible medium at 37 °C overnight.

[4] = system: S. aureus (ATCC 6538); assay: microbe, parasite or virus in culture; type: cell-based, Staphylococcus aureus; settings: planktonic S. aureus ATCC 6538
From the text: as §3

[5] = system: MRSA (NCTC 12493); assay: microbe, parasite or virus in culture; type: cell-based, methicillin-resistant Staphylococcus aureus; settings: planktonic MRSA NCTC 12493
From the text: as §3

[6] = system: MRSA NCTC 12493; settings: checkerboard MIC, planktonic MRSA NCTC 12493, 37 °C, 24 h, OD 550 nm
Protocol: (§4) The bacteria were cultured, subcultured, diluted, and incubated as the methods of the MIC assay. The pure peptides and antibiotics were weighed and, respectively, dissolved in DMSO and dd water to make the final concentration of 2× MIC. […] Different concentrations of peptide and antibiotic solutions were added to a 96-well plate in the form of a checkerboard grid. The blank control and growth control were still 100 µL medium and 100 µL bacterial culture. The plate was incubated at 37 °C for 24 h. After that, the plate reader was used to monitor the absorbance of each well at 550 nm (The Synergy TM HT, BioTek, Winooski, VT, USA).
as §1, §2

[7] = system: E. faecalis NCTC 12697; settings: checkerboard MIC, planktonic E. faecalis NCTC 12697, 37 °C, 24 h, OD 550 nm
Protocol: as §4, §1, §2

[8] = system: A. baumannii BAA 747; settings: checkerboard MIC, planktonic A. baumannii BAA 747, 37 °C, 24 h, OD 550 nm
Protocol: as §4, §1, §2

[9] = system: S. aureus ATCC 6538; settings: checkerboard MIC, planktonic S. aureus ATCC 6538, 37 °C, 24 h, OD 550 nm
Protocol: as §4, §1, §2

[10] = system: P. aeruginosa ATCC CRM 9027; settings: checkerboard MIC, planktonic P. aeruginosa ATCC CRM 9027, 37 °C, 24 h, OD 550 nm
Protocol: as §4, §1, §2

[11] = system: K. pneumoniae ATCC 43816; settings: checkerboard MIC, planktonic K. pneumoniae ATCC 43816, 37 °C, 24 h, OD 550 nm
Protocol: as §4, §1, §2

[12] = system: E. coli ATCC 8739; settings: checkerboard MIC, planktonic E. coli ATCC 8739, 37 °C, 24 h, OD 550 nm
Protocol: as §4, §1, §2

[13] = system: P. aeruginosa ATCC CRM 9027 biofilm; assay: Peptide and antibiotic co-administration MBIC checkerboard assay; type: cell-based, Pseudomonas aeruginosa; settings: 24 h, crystal violet, 595 nm
From the text: The plate was then carefully cleaned under running water.

[14] = peptide combined with gentamicin
[15] = 37 °C, nine repeats of three independent experiments
[16] = lowest concentration killing 99.9% of inoculum
[17] = peptide combined with levofloxacin
[18] = peptide combined with vancomycin

With CC[C@H](C)[C@H](NC(=O)[C@H](CCCCN)NC(=O)[C@H](CCCCN)NC(=O)CNC(=O)[C@H](C)NC(=O)CNC(=O)[C@H](CC(C)C)NC(=O)[C@@H](NC(=O)CNC(=O)[C@H](CO)NC(=O)[C@H](CC(C)C)NC(=O)[C@H](CC(C)C)NC(=O)CN)C(C)C)C(=O)N[C@H](C(=O)N[C@H]1CSSC[C@@H](C(=O)O)NC(=O)[C@H](CCCNC(=N)N)NC(=O)CNC(=O)[C@H](CO)NC(=O)[C@H](CC(C)C)NC(=O)CNC1=O)C(C)C [Nigrosin-6VL] (H-GLLSGVLGAGKKIVCGLSGRC-OH; disulfide 15-21) as the molecule, how does the “Biofilm FICI” value ([1]; peptide combined with cefepime) read?
Its value is 0.5.

What about the “Biofilm FICI” value [1, 14] of the same molecule?
Its value is 0.5.

And the HC10 [2]?
Its HC10 is greater than 256 µM.

And the MIC [3, 15]?
The MIC was greater than 128 µM.

And the MBC [3, 16]?
The MBC was greater than 128 µM.

And the MIC ([4]; 37 °C, nine repeats of three independent experiments, read-out: MIC)?
The MIC was 16 µM (≈ 31.8 µg/mL).

And the MBC ([4]; lowest concentration killing 99.9% of inoculum, read-out: MBC)?
Its MBC is 32 µM (≈ 63.6 µg/mL).

What about the MIC [5, 15] of the same molecule?
The MIC was greater than 128 µM.

What about the MBC [5, 16] of the same molecule?
The MBC was greater than 128 µM.

What about the FICI ([6]; peptide combined with cefepime) of the same molecule?
The FICI was 0.75.

What about the FICI [6, 14] of the same molecule?
The FICI was 0.5.

What about the FICI [6, 17] of the same molecule?
The FICI was 2.

What about the FICI [6, 18] of the same molecule?
The FICI was 1.

And the FICI ([7]; peptide combined with cefepime)?
Its FICI is 0.125.

And the FICI [7, 14]?
Its FICI is 0.625.

And the FICI [7, 17]?
Its FICI is 0.625.

What about the FICI [7, 18] of the same molecule?
Its FICI is 0.625.

And the FICI ([8]; peptide combined with cefepime)?
Its FICI is 1.

And the FICI [8, 14]?
Its FICI is 0.1875.

What about the FICI [8, 17] of the same molecule?
Its FICI is greater than 4.

What about the FICI [8, 18] of the same molecule?
The FICI was 1.25.

What about the FICI ([9]; peptide combined with cefepime) of the same molecule?
The FICI was 0.625.

What about the FICI [9, 14] of the same molecule?
Its FICI is 1.5.

What about the FICI [9, 17] of the same molecule?
Its FICI is 0.625.

And the FICI [9, 18]?
Its FICI is 2.25.

And the FICI ([10]; peptide combined with cefepime)?
The FICI was 0.5.

What about the FICI [10, 14] of the same molecule?
Its FICI is 0.5.

What about the FICI [10, 17] of the same molecule?
Its FICI is 0.5.

What about the FICI [10, 18] of the same molecule?
The FICI was greater than 4.

And the FICI ([11]; peptide combined with cefepime)?
Its FICI is 0.1875.

And the FICI [11, 14]?
The FICI was 0.1875.

And the FICI [11, 17]?
The FICI was 0.625.

What about the FICI [11, 18] of the same molecule?
Its FICI is 1.125.

And the FICI ([12]; peptide combined with cefepime)?
Its FICI is 0.375.

And the FICI [12, 14]?
Its FICI is 0.125.

What about the FICI [12, 17] of the same molecule?
The FICI was 0.375.

What about the FICI [12, 18] of the same molecule?
Its FICI is 1.125.

And the “Biofilm FICI” value ([13]; peptide combined with cefepime)?
The value was 0.3125.

And the “Biofilm FICI” value [13, 14]?
Its value is 0.5.
